From US20240085426A1, “TRIPLE QUADRUPOLE-BASED MULTIPLE REACTION MONITORING FOR CLINICAL THERAPEUTIC RESPONSE PREDICTION IN CANCER” (NATIONAL CANCER CENTER, priority 2020, published 2024) come the findings set out here.

The subject of one assay is KATO-III cell line. Kind of assay: 72-hour MTT experiment in KATO-III gastric cancer cell line. Format: cell-based. The settings on record: Homo sapiens, FGFR2-amplified cell line.
A further assay deals with SNU-5 cells. The assay can be described thus: 72-hour MTT experiment in SNU-5 gastric cancer cell line. In kind it is cell-based. The following applies: Homo sapiens, SNU-5, MET-amplified cell line.

Broadly, the IC50 is the midpoint of a concentration-inhibition curve. Read a low IC50 as greater potency in that assay. In the case of `COCc1c(-c2cc3cc(C)cc(OC)c3s2)c2c(N)ncnn2c1CN1CCNC(=O)C1` [rogaratinib], the IC50 is 0.031 µM in the assay on KATO-III cell line and over 0.04 µM in the assay on SNU-5 cells.
For the compound `C[C@@H](Oc1cc(-c2cnn(C3CCNCC3)c2)cnc1N)c1c(Cl)ccc(F)c1Cl` [crizotinib], the IC50 was found to be 0.0226 µM in the assay with KATO-III cell line and 0.0175 µM in the assay with SNU-5 cells.
